Results on 5 molecules are retold here after patent publication US5292752A, “Antithrombotic compounds” (Merrell Dow Pharmaceuticals Inc., priority 1992, dated 1994).

For assay [1], the target named is T1, 5HT2 receptor (Mus musculus, UniProt P35363).
T1 construct: from tissue; host or cells: whole living mouse (endogenous receptor of the brain)
Put plainly: 5-DMT head twitch test. The class given is in vivo. As to conditions: ip, mice, 5-DMT induced head twitch, read-out: ED50 FOR ABOLITION OF HEAD TWITCH. On the procedure: Psychopharmacol., Vol. 3, pages 89-92, (1979). The administration of 5-methoxy-N,N-dimethyltryptamine (DMT) to mice typically produces a characteristic head twitch in the mice. In this test, the mice are administered 5-DMT and a test compound. An absence of head twitches in the mice is considered to be predictive of the ability of the test compound to antagonize the 5HT2 receptor in vivo.

The target of assay [2] is T2, 5HT2 receptor (Rattus norvegicus, UniProt P14842).
T2 construct: from tissue
T2 sequence (P14842 whole entry): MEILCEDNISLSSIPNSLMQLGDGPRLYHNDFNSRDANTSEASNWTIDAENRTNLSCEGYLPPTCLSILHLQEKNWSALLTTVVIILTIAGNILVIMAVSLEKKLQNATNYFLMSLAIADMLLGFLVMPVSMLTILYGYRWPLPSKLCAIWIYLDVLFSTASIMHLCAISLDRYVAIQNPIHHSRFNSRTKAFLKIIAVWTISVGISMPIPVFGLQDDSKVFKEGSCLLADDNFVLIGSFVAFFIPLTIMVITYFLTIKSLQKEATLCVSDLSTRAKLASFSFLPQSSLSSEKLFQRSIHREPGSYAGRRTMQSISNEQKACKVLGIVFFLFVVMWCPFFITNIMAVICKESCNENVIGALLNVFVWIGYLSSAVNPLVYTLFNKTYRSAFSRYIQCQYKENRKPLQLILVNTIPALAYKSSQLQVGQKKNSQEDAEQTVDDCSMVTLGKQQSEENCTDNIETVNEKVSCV
The assay can be described thus: [3H] spiroperidol binding test. An excerpt:
In this test, 5HT2 receptors are exposed to both [^3 H] spiroperidol, (a substance known to have a specific affinity for the receptor) and the test compound. The extent to which there is a decrease in binding of the [^3 H] spiroperidol to the receptor is indicative of the affinity of the test compound for the 5HT2 receptor.
1-(4-Fluorophenyl)-2-[4-[(4-methanesulfonamidophenyl)carbonyl]-1-piperidinyl]-ethanone (Compound #1) and 1-(4-fluorophenyl)-2-[4-[(4-acetamidophenyl)carbonyl]-1-piperidinyl]-ethanone (Compound #2) were tested in this procedure. For comparative purposes, 1-(3-pyridyl)-2-[4 -[(4-methanesulfonamidophenyl)carbonyl]-1-piperidinyl]ethanone (Compound #3) and N-[4-[[1-[2-(4-fluoro phenyl)ethyl]-4-piperidne]carbenyl]phenyl] methane sulfononamide (compound #4) were also tested. Compound #4 was described in European Application 0 320 983, supra, as Example Number 8 and was prepared in that manner.

Assay [3] deals with phospholipase C mediated hydrolysis of phosphoinositides in rabbit vascular smooth muscle cells. To be noted: Araki et al.; cited from earlier work.
In assay [4] the test system is coronary vessel constriction. As to conditions: patients with stable angina; Golino et al., NEJM 1991; cited from earlier work.
The subject of assay [5] is rabbit vascular smooth muscle cells. As to conditions: culture of rabbit vascular smooth muscle cells; Araki et al., Atherosclerosis, 83 (1990); cited from earlier work.
For the next assay, the system named is thrombus formation. As to conditions: canine models; Bush et al., Drug Development Research, Vol. 7 (1986); cited from earlier work.

Structures are written as SMILES.

As usually defined, the ED50 is the midpoint of the dose-response relation. The term IC50 denotes the midpoint of a concentration-inhibition curve.

T1 sequence (P35363 whole entry): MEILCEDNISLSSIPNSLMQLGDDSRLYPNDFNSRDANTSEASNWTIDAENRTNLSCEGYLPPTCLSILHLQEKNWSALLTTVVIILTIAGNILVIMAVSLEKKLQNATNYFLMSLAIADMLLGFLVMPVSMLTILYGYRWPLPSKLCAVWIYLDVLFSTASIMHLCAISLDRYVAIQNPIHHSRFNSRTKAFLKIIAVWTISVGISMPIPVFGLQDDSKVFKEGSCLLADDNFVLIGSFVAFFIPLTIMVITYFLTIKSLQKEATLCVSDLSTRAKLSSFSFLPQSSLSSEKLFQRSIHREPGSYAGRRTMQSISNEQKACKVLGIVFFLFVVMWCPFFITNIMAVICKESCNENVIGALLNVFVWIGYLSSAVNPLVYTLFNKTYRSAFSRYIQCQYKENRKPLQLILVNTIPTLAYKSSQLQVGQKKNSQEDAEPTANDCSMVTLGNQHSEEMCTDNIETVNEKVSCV

Consider `CS(=O)(=O)Nc1ccc(C(=O)C2CCN(CC(=O)c3ccc(F)cc3)CC2)cc1` [Compound #1, 1-(4-Fluorophenyl)-2-[4-[(4-methanesulfonamidophenyl)carbonyl]-1-piperidinyl]-ethanone], for which the ED50 on 5HT2 receptor [1] came to 0.034 mg/kg.

With `CS(=O)(=O)Nc1ccc(C(=O)C2CCN(CC(=O)c3cccnc3)CC2)cc1` [Compound #3, 1-(3-pyridyl)-2-[4-[(4-methanesulfonamidophenyl)carbonyl]-1-piperidinyl]-ethanone], on 5HT2 receptor [1], the 50% effective dose (ED50) is above 200 mg/kg. `CS(=O)(=O)Nc1ccc(C(=O)C2CCN(CCc3ccc(F)cc3)CC2)cc1` [Compound #4, N-[4-[[1-[2-(4-fluorophenyl)ethyl]-4-piperidne]carbenyl]phenyl] methane sulfononamide] returned a half-inhibitory concentration (IC50) on 5HT2 receptor [2] of 100 nM. Also, the ED50 at 5HT2 receptor [1] amounted to 0.49 mg/kg.

As for `O=C(c1ccc(F)cc1)C1CCN(CCn2c(=O)[nH]c3ccccc3c2=O)CC1` [Ketanserin], in assay [3], the “inhibition of phospholipase C mediated hydrolysis of phosphoinositides” value is “inhibited phospholipase C mediated hydrolysis of phosphoinositides”. In addition, the “block of coronary vessel constriction” value in assay [4] is given as “blocked coronary vessel constriction”. In assay [5], the “inhibition of PDGF induced DNA synthesis” value is recorded as “inhibited PDGF induced DNA synthesis”. For the same molecule, in the assay on thrombus formation, the “prevention of thrombus formation” value is given as “extremely effective in preventing thrombus formation”. Turning to `CC(=O)Nc1ccc(C(=O)C2CCN(CC(=O)c3ccc(F)cc3)CC2)cc1` [Compound #2, 1-(4-fluorophenyl)-2-[4-[(4-acetamidophenyl)carbonyl]-1-piperidinyl]-ethanone], the ED50 on 5HT2 receptor [1] stood at 0.051 mg/kg.
